pIC50: −log10 of the molar value.
What follows are compounds tested against human MGL from HeLa cells (Homo sapiens (Human), UniProt Q99685) (assay: MGL in vitro activity assay ([glycerol-1,3-3H]-oleoyl glycerol hydrolysis, activated carbon filtration)). Settings: 300 nM [Glycerol-1,3-3H]-oleoyl glycerol, one hour.
Assay type: biochemical
Outline: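 Endogenous human MGL in HeLa cells/homogenates incubated 1 h with test compounds and 300 nM [glycerol-1,3-3H]-oleoyl glycerol. Released 3H-glycerol passing an activated carbon filter counted as activity; screening at 10 μM compound, top IC50 concentration set empirically.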

Sequence of human MGL from HeLa cells (Q99685 whole entry): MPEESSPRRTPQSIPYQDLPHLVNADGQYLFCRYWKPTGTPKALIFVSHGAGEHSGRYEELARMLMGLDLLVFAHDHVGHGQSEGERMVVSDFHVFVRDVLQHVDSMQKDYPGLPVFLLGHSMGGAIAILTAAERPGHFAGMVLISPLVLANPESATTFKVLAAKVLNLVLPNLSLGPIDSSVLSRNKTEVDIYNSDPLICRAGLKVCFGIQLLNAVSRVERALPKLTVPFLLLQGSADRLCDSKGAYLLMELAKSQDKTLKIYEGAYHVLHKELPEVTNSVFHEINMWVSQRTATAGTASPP

Row | pIC50 | Compound
1 | 7.19 | COc1ccc(C2CCC3(CC2)CN(C(=O)[C@H]2C[C@@](C)(O)C2)C3)cc1C(F)(F)F [Example 114, ((1s,3s)-3-Hydroxy-3-methylcyclobutyl)(7-(4-methoxy-3-(trifluoromethyl)phenyl)-2-azaspiro[3.5]nonan-2-yl)methanone]
2 | 7.70 | COc1ccc(C2CCC3(CC2)CN(C(=O)[C@H]2C[C@@](C)(O)C2)C3)cc1C(C)(C)C [Example 118, (7-(3-(tert-Butyl)-4-methoxyphenyl)-2-azaspiro[3.5]nonan-2-yl)((1s,3s)-3-hydroxy-3-methylcyclobutyl)methanone]
3 | 6.84 | Cn1ncc2cc(C3CCC4(CC3)CN(C(=O)[C@H]3C[C@@](C)(O)C3)C4)ccc21 [Example 122, ((1s,3s)-3-Hydroxy-3-methylcyclobutyl)(7-(1-methyl-1H-indazol-5-yl)-2-azaspiro[3.5]nonan-2-yl)methanone]
4 | 7.85 | C[C@]1(O)C[C@@H](C(=O)N2CC3(CCC(c4ccc5c(c4)CCC5)CC3)C2)C1 [Example 127, (7-(2,3-Dihydro-1H-inden-5-yl)-2-azaspiro[3.5]nonan-2-yl)((1s,3s)-3-hydroxy-3-methylcyclobutyl)methanone]
5 | 7.60 | COc1cc(C2CCC3(CC2)CN(C(=O)[C@H]2C[C@@](C)(O)C2)C3)ccc1C [Example 129, ((1s,3s)-3-Hydroxy-3-methylcyclobutyl)(7-(3-methoxy-4-methylphenyl)-2-azaspiro[3.5]nonan-2-yl)methanone]
6 | 7.49 | COc1cccc(C2CCC3(CC2)CN(C(=O)[C@H]2C[C@@](C)(O)C2)C3)c1 [Example 131, ((1s,3s)-3-Hydroxy-3-methylcyclobutyl)(7-(3-methoxyphenyl)-2-azaspiro[3.5]nonan-2-yl)methanone]
7 | 7.39 | CCOc1cccc(C2CCC3(CC2)CN(C(=O)[C@H]2C[C@@](C)(O)C2)C3)c1 [Example 132, (7-(3-Ethoxyphenyl)-2-azaspiro[3.5]nonan-2-yl)((1s,3s)-3-hydroxy-3-methylcyclobutyl)methanone]
8 | 8.09 | CC(C)c1cccc(C2CCC3(CC2)CN(C(=O)[C@H]2C[C@@](C)(O)C2)C3)c1 [Example 133, ((1s,3s)-3-Hydroxy-3-methylcyclobutyl)(7-(3-isopropylphenyl)-2-azaspiro[3.5]nonan-2-yl)methanone]
9 | 7.92 | Cc1ccc(C2CCC3(CC2)CN(C(=O)[C@H]2C[C@@](C)(O)C2)C3)cc1C [Example 134, (7-(3,4-Dimethylphenyl)-2-azaspiro[3.5]nonan-2-yl)((1s,3s)-3-hydroxy-3-methylcyclobutyl)methanone]
10 | 8.68 | CC(C)(C)c1cccc(C2CCC3(CC2)CN(C(=O)[C@H]2C[C@@](C)(O)C2)C3)c1 [Example 135, (7-(3-(tert-Butyl)phenyl)-2-azaspiro[3.5]nonan-2-yl)((1s,3s)-3-hydroxy-3-methylcyclobutyl)methanone]
11 | 7.46 | Cc1ccc(C2CCC3(CC2)CN(C(=O)[C@H]2C[C@@](C)(O)C2)C3)cc1 [Example 136, ((1s,3s)-3-Hydroxy-3-methylcyclobutyl)(7-(p-tolyl)-2-azaspiro[3.5]nonan-2-yl)methanone]
12 | 7.42 | Cc1cccc(C2CCC3(CC2)CN(C(=O)[C@H]2C[C@@](C)(O)C2)C3)c1 [Example 137, ((1s,3s)-3-Hydroxy-3-methylcyclobutyl)(7-(m-tolyl)-2-azaspiro[3.5]nonan-2-yl)methanone]

The next lines start with the compound.

Row | Compound | pIC50
13 | COc1cc(C2CCC3(CC2)CN(C(=O)[C@H]2C[C@@](C)(O)C2)C3)ccc1C(F)(F)F [Example 113, ((1s,3s)-3-Hydroxy-3-methylcyclobutyl)(7-(3-methoxy-4-(trifluoromethyl)phenyl)-2-azaspiro[3.5]nonan-2-yl)methanone] | 7.43
14 | CN(C)c1cc(C2CCC3(CC2)CN(C(=O)[C@H]2C[C@@](C)(O)C2)C3)ccc1C(F)(F)F [Example 115, (7-(3-(Dimethylamino)-4-(trifluoromethyl)phenyl)-2-azaspiro[3.5]nonan-2-yl)((1s,3s)-3-hydroxy-3-methylcyclobutyl)methanone] | 7.77
15 | CC(C)(C)c1cccc(C2CCC3(CC2)CN(C(=O)[C@H]2C[C@@](C)(O)C2)C3)n1 [Example 116, (7-(6-(tert-Butyl)pyridin-2-yl)-2-azaspiro[3.5]nonan-2-yl)((1s,3s)-3-hydroxy-3-methylcyclobutyl)methanone] | 8.36
16 | COc1cccc(C2CCC3(CC2)CN(C(=O)[C@H]2C[C@@](C)(O)C2)C3)n1 [Example 117, ((1s,3s)-3-Hydroxy-3-methylcyclobutyl)(7-(6-methoxypyridin-2-yl)-2-azaspiro[3.5]nonan-2-yl)methanone] | 6.38
17 | COc1cc(C2CCC3(CC2)CN(C(=O)[C@H]2C[C@@](C)(O)C2)C3)cc(C(F)(F)F)c1 [Example 119, ((1s,3s)-3-Hydroxy-3-methylcyclobutyl)(7-(3-methoxy-5-(trifluoromethyl)phenyl)-2-azaspiro[3.5]nonan-2-yl)methanone] | 7.92
18 | CCOc1cc(C2CCC3(CC2)CN(C(=O)[C@H]2C[C@@](C)(O)C2)C3)cc(C(F)(F)F)c1 [Example 120, (7-(3-Ethoxy-5-(trifluoromethyl)phenyl)-2-azaspiro[3.5]nonan-2-yl)((1s,3s)-3-hydroxy-3-methylcyclobutyl)methanone] | 6.85
19 | CCc1cc(C)cc(C2CCC3(CC2)CN(C(=O)[C@H]2C[C@@](C)(O)C2)C3)c1 [Example 121, (7-(3-Ethyl-5-methylphenyl)-2-azaspiro[3.5]nonan-2-yl)((1s,3s)-3-hydroxy-3-methylcyclobutyl)methanone] | 8.13
20 | CN(C)c1cc(C2CCC3(CC2)CN(C(=O)[C@H]2C[C@@](C)(O)C2)C3)cc(C(F)(F)F)c1 [Example 123, (7-(3-(Dimethylamino)-5-(trifluoromethyl)phenyl)-2-azaspiro[3.5]nonan-2-yl)((1s,3s)-3-hydroxy-3-methylcyclobutyl)methanone] | 7.57
21 | C[C@]1(O)C[C@@H](C(=O)N2CC3(CCC(c4ccc5ccccc5n4)CC3)C2)C1 [Example 124, ((1s,3s)-3-Hydroxy-3-methylcyclobutyl)(7-(quinolin-2-yl)-2-azaspiro[3.5]nonan-2-yl)methanone] | 6.64
22 | COc1cc(C)cc(C2CCC3(CC2)CN(C(=O)[C@H]2C[C@@](C)(O)C2)C3)c1 [Example 128, ((1s,3s)-3-Hydroxy-3-methylcyclobutyl)(7-(3-methoxy-5-methylphenyl)-2-azaspiro[3.5]nonan-2-yl)methanone] | 7.52
23 | CC(C)c1ccc(C2CCC3(CC2)CN(C(=O)[C@H]2C[C@@](C)(O)C2)C3)cc1 [Example 130, ((1s,3s)-3-Hydroxy-3-methylcyclobutyl)(7-(4-isopropylphenyl)-2-azaspiro[3.5]nonan-2-yl)methanone] | 7.77
24 | Cc1ccccc1C1CCC2(CC1)CN(C(=O)[C@H]1C[C@@](C)(O)C1)C2 [Example 138, ((1s,3s)-3-Hydroxy-3-methylcyclobutyl)(7-(o-tolyl)-2-azaspiro[3.5]nonan-2-yl)methanone] | 7.33
25 | CC(C)(C)c1cc(C2CCC3(CC2)CN(C(=O)[C@H]2C[C@@](C)(O)C2)C3)ccn1 [Example 139, (7-(2-(tert-Butyl)pyridin-4-yl)-2-azaspiro[3.5]nonan-2-yl)((1s,3s)-3-hydroxy-3-methylcyclobutyl)methanone] | 6.78

Reference: patent publication US11802111B2, “Cyclobutyl amide monoacylglycerol lipase modulators” (Janssen Pharmaceutica NV, priority 2020, dated 2023)
